US5436263A, “Inhibitors of farnesyl-protein transferase” (Merck & Co., Inc., priority 1994, dated 1995)

How the values were obtained:
[1] = biological target: T1, bovine FPTase (Bos taurus, UniProt P29702+P49355); assay: In vitro inhibition of Ras farnesyl-protein transferase, partially purified bovine FPTase; format: biochemical; conditions: Ras-CVLS substrate, [3H]-FPP, pH 7.4, 31° C., 60 min, concentration giving 50% inhibition of FPTase, read-out: Inhibition of RAS farnesylation IC50, bovine
T1 construct: Farnesyl-protein transferase (FPTase) from bovine brain; from tissue; host or cells: bovine brain
Method: The intrinsic farnesyl-protein transferase (FPTase) activity of representative compounds of this invention was measured by the assay as described below:
Farnesyl-protein transferase (FPTase) from bovine brain was chromatographed on DEAE-Sephacel (Pharmacia, 0-0.8M NaCl gradient elution), N-octyl agarose (Sigma, 0-0.6M NaCl gradient elution), and a mono Q HPLC column (Pharmacia, 0-0.3M NaCl gradient). Ras-CVLS (Cys-Val-Leu-Ser) at 3.5 mM, […] [^3 H]FPP, and the indicated compounds were incubated with this partially purified enzyme preparation. The FPTase inhibition data presented below is a measurement of the ability of the test compound to inhibit Ras farnesylation in vitro.
Assays of farnesyl-protein transferase. Partially purified bovine FPTase and Ras peptides (Ras-CVLS, Ras-CVIM and RAS-CAIL) were prepared as described by Schaber et al. J. Biol. Chem. 265:14701-14704 (1990) and Gibbs et al. PNAS U.S.A. 86:6630-6634 (1989), respectively. […] Precipitates were collected onto filter-mats using a TomTec Mach H cell harvestor, washed with 100% ethanol, dried and counted in an LKB β-plate counter. […] Percentage inhibition is measured by the amount of incorporation of farnesyl in the presence of the test compound when compared to the amount of incorporation in the absence of the test compound.

[2] = biological target: T2, human FPTase (Homo sapiens, UniProt P49354+P49356); assay: In vitro inhibition of Ras farnesyl-protein transferase, human FPTase; format: biochemical; conditions: 100 nM Ras-CVIM, 0.1% PEG 20,000, 10 μM ZnCl2, 30 min, concentration giving 50% inhibition of FPTase, read-out: Inhibition of RAS farnesylation IC50, human
T2 construct: made in house
Method: Inhibitory activity of the compounds of the instant invention may also be measured with an assay employing the recombinant human FPTase obtained as described by C. A. Omer et al. (Biochemistry, 32:5167-5176 (1993)).
Assays of farnesyl-protein transferase. Partially purified bovine FPTase and Ras peptides (Ras-CVLS, Ras-CVIM and RAS-CAIL) were prepared as described by Schaber et al. J. Biol. Chem. 265:14701-14704 (1990) and Gibbs et al. PNAS U.S.A. 86:6630-6634 (1989), respectively. Bovine FPTase was assayed in a volume of […] containing 100 mM N-(2-hydroxy ethyl) piperazine-N'-(2-ethane sulfonic acid) (HEPES), pH 7.4, 5 mM MgCl2, 5 mM dithiothreitol (DTT), […] [^3 H]-farnesyl diphosphate ([^3 H]-FPP; 740 CBq/mmol, New England Nuclear), 650 nM Ras-CVLS and 10 μg/ml FPTase at 31° C. for 60 min. Reactions were initiated with FPTase and stopped with 1 ml of 1.0M HCL in ethanol. Precipitates were collected onto filter-mats using a TomTec Mach H cell harvestor, washed with 100% ethanol, dried and counted in an LKB β-plate counter. The assay was linear with respect to both substrates, FPTase levels and time; less than 10 % of the [^3 H]-FPP was utilized during the reaction period. […] Percentage inhibition is measured by the amount of incorporation of farnesyl in the presence of the test compound when compared to the amount of incorporation in the absence of the test compound. […]

[3] = test system: Ras farnesylation; conditions: HMG-CoA reductase inhibitors, Hancock et al., Casey et al., Schafer et al.; cited from earlier work

Row | IC50 [1] | IC50 [2] | SMILES | Inhibition of Ras farnesylation in vivo [3]
1 | 300 nM | 2700 nM | COC(=O)C1=CC(CO)=COc2oc3cccc(O)c3c(=O)c21 [Compound 1, 7-hydroxy-3-(hydroxymethyl)-6-oxo-6H-oxepino[2,3-b][1]benzopyran-5-carboxylic acid methyl ester] | –
2 | 1000 nM | – | COC(=O)C1=CC(COC(C)=O)=COc2oc3cccc(OC(C)=O)c3c(=O)c21 [Compound 2, 7-acetyloxy-3-[(acetyloxy)methyl]-6-oxo-6H-oxepino[2,3-b][1]benzopyran-5-carboxylic acid methyl ester] | –
3 | – | – | CC[C@H](C)C(=O)O[C@H]1CCC=C2C=C[C@H](C)[C@H](CC[C@@H]3C[C@@H](O)CC(=O)O3)[C@H]21 [compactin] | Inhibition of Ras farnesylation in vivo has been demonstrated
4 | – | – | CC[C@H](C)C(=O)O[C@H]1C[C@@H](C)C=C2C=C[C@H](C)[C@H](CC[C@@H]3C[C@@H](O)CC(=O)O3)[C@H]21 [lovastatin] | Inhibition of Ras farnesylation in vivo has been demonstrated
